The structures appear in SMILES notation. In brackets after ≈: the same amount, converted by molar mass. Bounds are passed on as bounds.

By solubility (kinetic) is commonly meant solubility judged after dilution from a stock solution rather than from solid.

The conditions of this data set: buffer; pH 7.4; 200.0 µM.
Take `CCN1CCN(C(=O)C(=O)c2c(C)[nH]c3ccccc23)CC1`: the kinetic solubility is 36.1 µg/mL (≈ 121 µM).
In the case of `Cc1cc(C)cc(N=Cc2c(O)c3ccccc3oc2=O)c1`, the solubility (kinetic) was < 0.6 µg/mL.
The figure for `c1csc(-c2nc(N3CCCCC3)no2)c1` is 3.8 µg/mL (≈ 16.1 µM).
In turn, `O=C(CCc1nc(-c2ccc(Cl)cc2)no1)NC1CCCC1` yielded a solubility (kinetic) of 6.4 µg/mL (≈ 20 µM).
`O=C(COC(=O)c1ccccc1Cl)NC1CCCCCC1` showed a solubility (kinetic) of 29.5 µg/mL (≈ 95.2 µM).
With `Cc1ccc(C(=O)NCC(C)NC(=O)c2ccc(C)c(C)c2)cc1C` (stereo not drawn), the solubility (kinetic) came to 3.4 µg/mL (≈ 10 µM).
The figure for `COC(=O)c1c(-c2cccc(C)c2)csc1NC(=O)C1CCCO1` (stereo not drawn) is 11.1 µg/mL (≈ 32.1 µM); for `C=CCN1C(=O)C2(OCCCO2)c2c(C)ccc(C)c21` it is 28.2 µg/mL (≈ 103 µM).
For `COc1ccc(C(=O)N2CCN(CC(=O)N3CCOCC3)CC2)cc1`, the solubility (kinetic) amounted to 40.6 µg/mL (≈ 117 µM).
`O=C(COC(=O)CC1CCCC1)Nc1ccc(OC(F)F)cc1` returned a kinetic solubility of 42.1 µg/mL (≈ 129 µM).
With `CCOC(=O)c1sc(=NC(=O)c2ccc(F)cc2)n(C)c1C`, the kinetic solubility worked out at 1.4 µg/mL (≈ 4.34 µM).
`O=C(CN1CCOCC1)Nc1ccc(F)cc1`: the solubility (kinetic) was > 35.7 µg/mL.
The molecule `CC(C)CCNC(=O)c1cc2c(s1)-c1ccccc1S(=O)(=O)C2` had a solubility (kinetic) of 2.1 µg/mL (≈ 6.01 µM).
As to `Cn1c(=O)c2ccccc2n(CC(=O)NC2CCCC2)c1=O`, the solubility (kinetic) came to 40.2 µg/mL (≈ 133 µM).
On to `Cc1c(Cl)cnc(NC(=O)COC(=O)C2CCCC2)c1Cl`, for which the kinetic solubility was > 49.7 µg/mL.
The figure for `COc1ccc(C(=O)COC(=O)CN2C(=O)C3CC=CCC3C2=O)c(OC)c1` (stereo not drawn) is 57.6 µg/mL (≈ 149 µM); for `CC(NC(=O)c1c(F)cccc1Cl)c1ccc(-n2ccnc2)cc1` (stereo not drawn) it is > 51.6 µg/mL; for `O=C(CCC(=O)c1ccccc1)Nc1ccc(C(=O)O)cc1` it is > 44.6 µg/mL.
Turning to `CCOC(=O)Cc1csc(NC(=O)c2cccc([N+](=O)[O-])c2)n1`, the kinetic solubility was > 50.3 µg/mL.
On to `CCOc1ccc(N=C2NC(=O)SC2CC(=O)OC)cc1` (stereo not drawn), for which the kinetic solubility worked out at 12.4 µg/mL (≈ 40.2 µM).
For the molecule `CC(C)CCN1CCN(Cc2ccon2)CC1CCO` (stereo not drawn), the solubility (kinetic) is > 42.2 µg/mL.
With `CC(C)C(=O)N1CC(=O)Nc2ccc(F)cc2C1c1ccc(F)cc1` (stereo not drawn), the kinetic solubility was > 51.7 µg/mL.
Take `CC(C)(C)NC(=O)c1cc2c(ccc3ccccc32)oc1=O`: the solubility (kinetic) is 2.5 µg/mL (≈ 8.46 µM).
`O=C(COC(=O)CCC(=O)c1cccs1)NCc1ccccc1`: the solubility (kinetic) came out at 45.6 µg/mL (≈ 138 µM).
To `N#Cc1ccc(OCC(=O)OCC(=O)c2ccccc2)cc1` belongs > 44.3 µg/mL.
In the case of `Cc1cccc(C)c1NC(=O)CN1C(=O)C2CC=CCC2C1=O` (stereo not drawn), the kinetic solubility was > 46.9 µg/mL.
The figure for `COc1cc(OC)cc(C(=O)NC2CCSc3ccccc32)c1` (stereo not drawn) is 3.9 µg/mL (≈ 11.8 µM); for `O=C(COC(=O)c1cc(=O)[nH]c2ccccc12)Nc1ccc(F)cc1F` it is 13.7 µg/mL (≈ 38.2 µM).
In the case of `COc1cc(NC(=O)Cc2ccccc2)nc(OC)n1`, the solubility (kinetic) was > 41 µg/mL.
The figure for `C=CCNC(=S)/N=c1/ccccn1CCC` is 35.1 µg/mL (≈ 149 µM); for `COc1ccc(NC(=O)CCN2C(=O)c3ccccc3C2=O)cc1` it is 23.1 µg/mL (≈ 71.2 µM); for `CCn1nc(C(=O)NNC(=O)C(Cc2ccccc2)NC(N)=O)c2ccccc2c1=O` (stereo not drawn) it is > 63.4 µg/mL.
Turning to `Cc1c(N2CCCC2)cc2c(c1N)C(C)(C)CC2(C)C`, the kinetic solubility was 19.2 µg/mL (≈ 70.5 µM).
The figure for `CCCCCNCc1ccc(Cl)cc1` is 12.4 µg/mL (≈ 58.6 µM); for `Cc1ccc(S(=O)(=O)CC(=O)Nc2cc(C)on2)cc1` it is 37.6 µg/mL (≈ 128 µM).
`c1ccc(N2CCN(C3CC4CCC3C4)CC2)cc1` (stereo not drawn) yielded a solubility (kinetic) of 27.1 µg/mL (≈ 106 µM).
`CCCS(=O)(=O)N1CCCC(C(=O)c2cccc(Cl)c2)C1` (stereo not drawn) registered a solubility (kinetic) of 44.7 µg/mL (≈ 136 µM).
`Cc1ccc(NC(=O)c2ccccc2F)c(NC(=O)c2ccccc2F)c1` displayed a solubility (kinetic) of 6.4 µg/mL (≈ 17.5 µM).
For `O=C(Nc1ccccc1C(=O)N1CCCCC1)c1cccs1`, the solubility (kinetic) was > 47.2 µg/mL.
To `NC1=NC(=O)/C(=C\c2cccnc2)S1` belongs > 30.8 µg/mL; to `CCCCN(C/C=C/c1ccccc1OC)Cc1ccccc1`, 3.5 µg/mL (≈ 11.3 µM); to `Cc1ccc(S(=O)(=O)Nc2cccc(C(=O)NCC(c3ccc(F)cc3)N3CCOCC3)c2)cc1` (stereo not drawn), 58.2 µg/mL (≈ 117 µM).
`COCCCn1c(=S)[nH]c(C)c(C)c1=O`: the kinetic solubility was > 34.2 µg/mL.
In turn, `COc1cccc(NC(=O)COC(=O)/C=C/c2ccco2)c1` returned a solubility (kinetic) of 30.5 µg/mL (≈ 101 µM).
As to `CCC(=O)c1ccc(OCC(O)CNC2CCCC2)cc1` (stereo not drawn), the solubility (kinetic) was determined as 35.6 µg/mL (≈ 122 µM).
For the molecule `O=C(NCCc1c[nH]c2ccccc12)c1ccccc1Cl`, the kinetic solubility came to 23.2 µg/mL (≈ 77.7 µM).
In the case of `CCOC(=O)Cc1csc(NC(=O)CSc2nc(C)cc(C)n2)n1`, the solubility (kinetic) is > 55 µg/mL.
`O=C(c1ccccc1)c1ccccc1N=Cc1c(O)[nH]c(=O)[nH]c1=O` gave a kinetic solubility of 3.8 µg/mL (≈ 11.3 µM).
To `CC(C(=O)O)N1CCCCC1.Cl` (stereo not drawn) belongs 24.3 µg/mL; to `CCc1cccc(NC(=O)CCCN2C(=O)NC(C)(C)C2=O)c1`, > 47.6 µg/mL; to `Cc1ccc(C)c(C(C)NC(=O)C2CCCO2)c1` (stereo not drawn), 36.7 µg/mL (≈ 148 µM).
The figure for `O=C(NC1CC1)c1cc(OCC(F)(F)F)ccc1OCC(F)(F)F` is 44.3 µg/mL (≈ 124 µM).
`Cn1cccc1C(=O)c1cccc([N+](=O)[O-])c1` yielded a kinetic solubility of 14.3 µg/mL (≈ 62.1 µM).
Consider `O=C(Cc1ccccc1[N+](=O)[O-])Nc1nccs1`, for which the kinetic solubility was 7.3 µg/mL (≈ 27.7 µM).
Turning to `COc1ccc(N2CCN(S(=O)(=O)c3cn(C)c(=O)n(C)c3=O)CC2)cc1`, the kinetic solubility was found to be 17.9 µg/mL (≈ 45.4 µM).
As to `Cc1cccc(NC(=O)Nc2c(C)[nH]c(=O)[nH]c2=O)c1C`, the solubility (kinetic) is 5.2 µg/mL (≈ 18 µM).
The figure for `Cc1cccc(NC(=O)COC(=O)c2cccs2)c1C` is 1.8 µg/mL (≈ 6.22 µM).
The figure for `O=C(c1cccs1)N1CC=C(c2ccccc2)CC1` is 11.5 µg/mL (≈ 42.7 µM).
As for `Cl.O=C(CN1CCCC1)Nc1ccc(Br)cc1`, the solubility (kinetic) is > 47.9 µg/mL.
The figure for `O=C(CNS(=O)(=O)c1ccccc1)N1CCCC1` is > 40.2 µg/mL; for `COc1ccc(-c2nc3ncccc3o2)cc1NC(=O)c1ccco1` it is 2.5 µg/mL (≈ 7.46 µM); for `CC(=O)c1ccc(-n2c(C)c(C(C)=O)c3cc(O)ccc32)cc1` it is < 0.7 µg/mL.
The figure for `CC(C)(CN1CCc2ccccc2C1)NS(=O)(=O)c1ccccc1` is 34.8 µg/mL (≈ 101 µM).
`CCn1c(=O)c(C(=O)CN(C)CC(=O)Nc2cccc(F)c2)c(N)n(Cc2ccccc2)c1=O`: the kinetic solubility was 15.6 µg/mL (≈ 33.4 µM).
With `O=CN1CCN(C(=S)NC(=O)c2ccc(Cl)cc2)CC1`, the kinetic solubility is 44.3 µg/mL (≈ 142 µM).
Molecule `O=C(NCCCn1ccnc1)c1ccc(OCC(F)(F)F)cc1` showed a solubility (kinetic) of 43.4 µg/mL (≈ 133 µM).
Regarding `COC(=O)Cn1c(Cc2ccccc2)nc2ccccc21`, the solubility (kinetic) was > 42 µg/mL.
For `CCOC(=O)Cc1ccc(NC(=O)c2cccc([N+](=O)[O-])c2)cc1`, the solubility (kinetic) came to 2.6 µg/mL (≈ 7.92 µM).
With `O=C(Cc1ccc(Br)cc1)Nc1ccc(Cl)cc1`, the kinetic solubility was < 0.7 µg/mL.
`CCCNC(=O)CN1C(=O)c2ccccc2Sc2ncccc21`: the kinetic solubility is > 49.1 µg/mL.
For `COC(=O)c1cccc2c1NC(=O)C2=O`, the solubility (kinetic) is > 30.8 µg/mL.
`O=c1[nH]c(=O)n(C2CCCCCC2)c(O)c1C=NCc1cccnc1` yielded a kinetic solubility of 8.2 µg/mL (≈ 23.9 µM).
In turn, `Cc1ccc(S(=O)(=O)N2CCOCC2)cc1NC(=O)COC(=O)/C=C/c1ccco1` had a kinetic solubility of 11.4 µg/mL (≈ 26.2 µM).
With `Cc1ccc(O)c(NC(=O)c2noc(C(C)C)c2[N+](=O)[O-])c1`, the kinetic solubility is 40.5 µg/mL (≈ 133 µM).
Regarding `CN(C(=O)CSc1ncn[nH]1)C1(C#N)CCCCC1`, the kinetic solubility is > 41.9 µg/mL.
In the case of `CCN(CC)Cc1nc2sc(C)c(C)c2c(=O)[nH]1`, the kinetic solubility is 34.9 µg/mL (≈ 132 µM).
`O=C(CCc1c[nH]c2ccccc12)NCCc1ccc(Cl)cc1` displayed a solubility (kinetic) of 4.2 µg/mL (≈ 12.9 µM).
As to `CC1CCCCC1NC(=O)NC(=O)COC(=O)c1nccnc1N` (stereo not drawn), the solubility (kinetic) was > 50.3 µg/mL.
On to `CN(C)NC(=O)c1ccc([N+](=O)[O-])s1`, for which the kinetic solubility is > 32.3 µg/mL.
`CC(=O)c1sccc1NC(=O)CC(C)(C)CC(=O)O` yielded a kinetic solubility of 32.5 µg/mL (≈ 115 µM).
On to `COc1ccc(C2C(C#N)=C(N)Oc3c2oc(CO)cc3=O)cc1` (stereo not drawn), for which the kinetic solubility was > 48.9 µg/mL.
Take `O=c1c2ccccc2[nH]c(=S)n1Cc1ccccc1`: the solubility (kinetic) was < 0.3 µg/mL.
As for `NS(=O)(=O)c1ccc(NC(=O)CCCC(=O)O)cc1`, the kinetic solubility is > 42.9 µg/mL.
Turning to `CC1CCN(C(=O)COC(=O)CCC(=O)c2ccc(F)cc2)CC1`, the kinetic solubility is > 50.3 µg/mL.
In the case of `CCC(C)[C@H](NC(=O)NCc1ccc(OC)c(OC)c1)C(=O)O` (stereo partly drawn), the kinetic solubility was found to be 39.9 µg/mL (≈ 123 µM).
Turning to `COc1ccc(OC)c(NC(=O)c2cccnc2)c1`, the solubility (kinetic) was > 38.7 µg/mL.
The molecule `CCOc1ccc(N/C(N)=N/c2nc(C)c(C)c(=O)[nH]2)cc1` displayed a kinetic solubility of 2.3 µg/mL (≈ 7.63 µM).
The figure for `CC1CCCC(C)N1C(=O)COC(=O)Cc1ccc(F)cc1` (stereo not drawn) is 30.9 µg/mL (≈ 101 µM).
To `Cc1cccc(OCCC(=O)Nc2ccc(Cl)cc2F)c1` belongs < 0.7 µg/mL; to `N=C1/C(=C/c2cccn2Cc2ccc(F)cc2)C(=O)N=C2SC=CN12`, < 0.2 µg/mL; to `O=C(NCCCNC(=O)c1ccccc1)c1ccccc1`, > 42.4 µg/mL.
To `CCN(Cc1cccc(F)c1)C(=O)c1ccc2ccccc2n1` belongs > 46.3 µg/mL; to `Cc1cnc(NC(=O)c2cc(S(=O)(=O)N(C)C)ccc2N2CCCC2)s1`, 4.7 µg/mL (≈ 11.9 µM); to `C=C(C)CNC(=O)c1ccc2nc(Cc3ccc(OC)cc3)oc2c1`, 40.5 µg/mL (≈ 120 µM).
In the case of `CCc1ccc(NCc2ccc(OC)c(Cn3ccnc3)c2)cc1`, the solubility (kinetic) came out at 40.2 µg/mL (≈ 125 µM).
Consider `CCOC(=O)C1(C)NC(c2ccco2)C2C(=O)N(CC)C(=O)C21` (stereo not drawn), for which the kinetic solubility is > 48.1 µg/mL.
To `O=C(NC(=S)NCc1cccnc1)c1ccccc1F` belongs > 43.4 µg/mL.
On to `CCCc1cc(=O)[nH]c(SCC(=O)N2c3ccccc3CC2C)n1` (stereo not drawn), for which the solubility (kinetic) was > 51.5 µg/mL.
As for `O=C(CN1C(=O)NC2(CCOc3ccccc32)C1=O)c1cccs1` (stereo not drawn), the kinetic solubility was > 51.4 µg/mL.
To `CCC(C(=O)NCc1cccnc1)c1ccccc1` (stereo not drawn) belongs > 38.1 µg/mL; to `Cn1c(C(=O)N[C@@H](Cc2ccccc2)C(=O)O)cc2cc(F)ccc21`, > 51.1 µg/mL.
To `CCNC(=S)Nc1ccc2ncoc2c1` belongs > 33.2 µg/mL; to `CCOc1cccc(C(=O)Nc2ccncc2)c1`, > 36.3 µg/mL.

The record behind these values is PubChem BioAssay AID1996.
